Data: patent US20180155757A1, “IDENTIFICATION OF BACTERIA THAT ARE RESISTANT TO CARBAPENEMS BY MEMBRANE IMPERVIOUSNESS” (BIOMÉRIEUX, priority 2015, published 2018)
Like-named read-outs stand apart in the source and are kept apart here.

What was measured:
[1] = tested on: carbapenem-resistant bacterial strains
Description: For each strain tested, each PMBN concentration and each indicator carbapenem, the MIC measured is compared to that obtained in the absence of PMBN. In the light of the possible difference in MIC values, a prognosis for the mechanism of resistance developed by the strain tested is established by applying the following general premise: A decrease in MICIM/ETP in the presence of PMBN is an indication of carbapenem resistance by membrane impermeability. In any other case, another mechanism of resistance is implicated.
For the purposes of verifying the accuracy of the prognoses established and the relevance of the general premise mentioned above: • each strain was tested by Western blot with the view to detection of porins (in the case in point, of the OmpF and OmpC isoforms), and • for some of the strains tested, in particular those for which there remains a doubt as to the mechanism of resistance developed (prognosis established in contradiction with the results of the porin detection by Western blot), a test for detecting carbapenemases by means of the RAPIDEC® CARBA NP kit (bioMérieux, France) was also carried out.
As regards the results thus obtained, the characterization of the strains termed carbapenem resistant by membrane impermeability is established either by the absence of porins detected by Western blot, or by carbapenem resistance that is not linked to the presence of carbapenemase, verified by a molecular method (PCR) and/or by a phenotypic method (RAPIDEC® CARBA NP).
A second method of interpretation of the results compiled in table 3 is proposed here. The prognosis system is based on the following “refined” premise: A decrease in MICIM/ETP, in the presence of PMBN, by at least a factor of 4 (that is to say with a difference in MIC of 2 doubling dilutions), is the signal of carbapenem resistance by membrane impermeability. If not, another mechanism of resistance is implicated.

[2] = tested on: Enterobacter aerogenes EA 2 (porin+); assay: Etest MIC of indicator carbapenems on MH II agar without/with PMBN; assay type: cell-based; details: Klebsiella aerogenes
Description: (§1) The determinations of antibiotic MIC were carried out on solid culture media with the Etest® method. To do this, Etest® strips (bioMérieux, France) were used: • Etest® Imipenem IM 32, and • Etest® Ertapenem ETP 32, and also solid culture media, differing from one another by virtue of their non-inhibitory concentrations of PMBN.
(§2) These solid culture media are prepared in Petri dishes (0=145 mm; V=50 ml) on a base of MH II Agar (Becton Dickinson®, United States), more or less supplemented with PMBN. The PMBN concentrations range from 0 up to concentrations equivalent to one fifth of the MIC of PMBN (⅕ MICPMBN).
(§3) Using a swab and the Retro C80™ rota-plater (bioMérieux, France), the culture media were inoculated with the bacteria, originating from an inoculum of 0.5 McFarland, prepared in 0.85% NaCl solution from colonies subcultured the day before on MH II agar.
(§4) The various Etest® strips are then deposited on the surface of the culture media. After 16 to 20 hours of incubation at 35° C., the MICS were read.

[3] = tested on: Enterobacter aerogenes EA 15038 (porin+); assay: as above; assay type: cell-based
Description: as §1, §2, §3, §4

[4] = tested on: E. cloacae 1008073 (VIM-1 producer); assay: as above; assay type: cell-based
Description: as §1, §2, §3, §4
(§5) To do this, imipenem and ertapenem were used as indicator carbapenems. Non-inhibitory concentrations of PMBN, equivalent to concentrations of one tenth ( 1/10), one eighth (⅛) and one fifth (⅕) of the MIC of PMBN, were applied.

[5] = tested on: K. pneumoniae 1012335 (OXA-48 producer); assay: as above; assay type: cell-based
Description: as §1, §2, §3, §4, §5

[6] = tested on: C. freundii 0403012; assay: as above; assay type: cell-based
Description: as §1, §2, §3, §4, §5

[7] = tested on: E. coli 1008077 (VIM-1 producer); assay: as above; assay type: cell-based
Description: as §1, §2, §3, §4, §5

[8] = tested on: K. pneumoniae 1108006 (KPC-2 producer); assay: as above; assay type: cell-based
Description: as §1, §2, §3, §4, §5

[9] = tested on: K. pneumoniae 1108007 (VIM-1 producer); assay: as above; assay type: cell-based
Description: as §1, §2, §3, §4, §5

[10] = tested on: E. cloacae 0901026 (KPC-2 producer); assay: as above; assay type: cell-based
Description: as §1, §2, §3, §4, §5

[11] = tested on: K. pneumoniae 1108001 (KPC-2 producer); assay: as above; assay type: cell-based
Description: as §1, §2, §3, §4, §5

[12] = tested on: E. cloacae 9304026; assay: as above; assay type: cell-based
Description: as §1, §2, §3, §4, §5

[13] = tested on: E. cloacae 1101172 (NDM producer); assay: as above; assay type: cell-based
Description: as §1, §2, §3, §4, §5

[14] = tested on: E. cloacae 1008079 (IMP-1 producer); assay: as above; assay type: cell-based
Description: as §1, §2, §3, §4, §5

[15] = tested on: E. cloacae 1008096 (VIM-1 producer); assay: as above; assay type: cell-based
Description: as §1, §2, §3, §4, §5

C[C@@H](O)[C@H]1C(=O)N2C(C(=O)O)=C(S[C@@H]3CN[C@H](C(=O)Nc4cccc(C(=O)O)c4)C3)[C@H](C)[C@H]12 [ETP, ertapenem]
reliability of a negative prognosis with regard to resistance by membrane impermeability ([1]; general premise): 90% | reliability of a positive prognosis with regard to resistance by membrane impermeability ([1]; general premise): 66% | reliability of a negative prognosis with regard to resistance by membrane impermeability ([1]; refined premise): 85% | reliability of a positive prognosis with regard to resistance by membrane impermeability ([1]; refined premise): 86% | MIC [2]: 0.125 µg/mL | MIC ([2]; EA 2 (porin+), [PMBN] 0, read-out: MIC): 0.03 µg/mL | MIC ([2]; EA 2 (porin+), [PMBN] MIC/8, read-out: MIC): 0.25 µg/mL | MIC ([2]; EA 2 (porin+), [PMBN] MIC/10, read-out: MIC): 0.25 µg/mL | MIC ([3]; EA 15038 (porin+), [PMBN] MIC/8): 0.125 µg/mL | MIC ([3]; Klebsiella aerogenes): 0.125 µg/mL | MIC ([3]; Klebsiella aerogenes, EA 15038 (porin+), [PMBN] 0, read-out: MIC): 0.25 µg/mL | MIC ([3]; Klebsiella aerogenes, EA 15038 (porin+), [PMBN] MIC/5, read-out: MIC): 0.06 µg/mL | MIC ([4]; [PMBN] 0): 2 µg/mL | MIC ([4]; [PMBN] MIC/5): 1 µg/mL | MIC ([4]; [PMBN] MIC/8): 1 µg/mL | MIC ([4]; [PMBN] MIC/10): 1 µg/mL | MIC ([5]; [PMBN] 0): 2 µg/mL | MIC ([5]; [PMBN] MIC/5): 4 µg/mL | MIC ([5]; [PMBN] MIC/8): 4 µg/mL | MIC ([5]; [PMBN] MIC/10): 4 µg/mL | MIC ([6]; [PMBN] 0): 8 µg/mL | MIC ([6]; [PMBN] MIC/5): 4 µg/mL | MIC ([6]; [PMBN] MIC/8): 4 µg/mL | MIC ([6]; [PMBN] MIC/10): 8 µg/mL | MIC ([7]; [PMBN] 0): 8 µg/mL | MIC ([7]; [PMBN] MIC/5): 4 µg/mL | MIC ([7]; [PMBN] MIC/8): 4 µg/mL | MIC ([7]; [PMBN] MIC/10): 4 µg/mL | MIC ([8]; [PMBN] 0): 64 µg/mL | MIC ([8]; [PMBN] MIC/5): 256 µg/mL | MIC ([8]; [PMBN] MIC/8): 256 µg/mL | MIC ([8]; [PMBN] MIC/10): 256 µg/mL | MIC ([9]; [PMBN] 0): 8 µg/mL | MIC ([9]; [PMBN] MIC/5): 8 µg/mL | MIC ([9]; [PMBN] MIC/8): 16 µg/mL | MIC ([9]; [PMBN] MIC/10): 16 µg/mL | MIC ([10]; [PMBN] 0): 16 µg/mL | MIC ([10]; [PMBN] MIC/5): 8 µg/mL | MIC ([10]; [PMBN] MIC/8): 32 µg/mL | MIC ([10]; [PMBN] MIC/10): 32 µg/mL | MIC ([11]; [PMBN] 0): 16 µg/mL | MIC ([11]; [PMBN] MIC/5): 8 µg/mL | MIC ([11]; [PMBN] MIC/8): 8 µg/mL | MIC ([11]; [PMBN] MIC/10): 16 µg/mL | MIC ([12]; [PMBN] 0): 16 µg/mL | MIC ([12]; [PMBN] MIC/5): 8 µg/mL | MIC ([12]; [PMBN] MIC/8): 8 µg/mL | MIC ([12]; [PMBN] MIC/10): 4 µg/mL | MIC ([13]; [PMBN] 0): 4 µg/mL | MIC ([13]; [PMBN] MIC/5): 4 µg/mL | MIC ([13]; [PMBN] MIC/8): 8 µg/mL | MIC ([13]; [PMBN] MIC/10): 8 µg/mL | MIC ([14]; [PMBN] 0): 4 µg/mL | MIC ([14]; [PMBN] MIC/5): 8 µg/mL | MIC ([14]; [PMBN] MIC/8): 8 µg/mL | MIC ([14]; [PMBN] MIC/10): 8 µg/mL | MIC ([15]; [PMBN] 0): 4 µg/mL | MIC ([15]; [PMBN] MIC/5): 4 µg/mL | MIC ([15]; [PMBN] MIC/8): 4 µg/mL | MIC ([15]; [PMBN] MIC/10): 4 µg/mL
